Patent US9074255B2, “Method of predicting a predisposition to QT prolongation” (Vanda Pharmaceuticals, Inc., priority 2009, dated 2015)

Columns and labels:
QT interval [1] = experiment: QT prolongation vs presence or absence of TT genotype at rs3775378 in 174 individuals given iloperidone; type: in vivo, human; settings: 24 mg/day B.I.D. oral, two weeks
Protocol: (§1) Since the QT interval changes with changes in heart rate, the QT interval is often measured as a corrected QT (QTc) interval. Any number of formulas may be employed to calculate the QTc, including, for example, the Fridericia formula (QTcF), the Bazett formula (QTcB), and the Rautaharju formula (QTp), among others. In the studies described herein, QT was calculated using the Fridericia formula. However, the present invention includes the use of any such formula or method for calculating a QTc or an uncorrected QT. Using the genotypes at the SNP loci above, it is possible, with a high degree of certainty, to predict an individual's predisposition to QT prolongation.

QT interval [2] = experiment: FAM13A1 SNP genotypes and QT prolongation (QTcF) following administration of iloperidone; type: in vivo, human
Protocol: as §1, with “QT.” for “QT. Using the genotypes at the SNP loci above, it is possible, with a high degree of certainty, to predict an individual's predisposition to QT prolongation.”

COc1cc(C(C)=O)ccc1OCCCN1CCC(c2noc3cc(F)ccc23)CC1 [iloperidone, 1-[4-[3-[4-(6-fluoro-1,2-benzisoxazol-3-yl)-1-piperidinyl]propoxy]-3-methoxyphenyl]ethanone]
High QT, + test (number of individuals) (QT interval [1]; Change threshold QT > 5 msec): 9
High QT, − test (number of individuals) (QT interval [1]; Change threshold QT > 5 msec): 101
Low QT, + test (number of individuals) (QT interval [1]; Change threshold QT > 5 msec): 0
Low QT, − test (number of individuals) (QT interval [1]; Change threshold QT > 5 msec): 63
High QT, + test (number of individuals) (QT interval [1]; Change threshold QT > 15 msec): 8
High QT, − test (number of individuals) (QT interval [1]; Change threshold QT > 15 msec): 59
Low QT, + test (number of individuals) (QT interval [1]; Change threshold QT > 15 msec): 1
Low QT, − test (number of individuals) (QT interval [1]; Change threshold QT > 15 msec): 105
High QT, + test (number of individuals) (QT interval [1]; Change threshold QT > 30 msec): 6
High QT, − test (number of individuals) (QT interval [1]; Change threshold QT > 30 msec): 22
Low QT, + test (number of individuals) (QT interval [1]; Change threshold QT > 30 msec): 3
Low QT, − test (number of individuals) (QT interval [1]; Change threshold QT > 30 msec): 142
Lowest QTc change (genotype) (QT interval [2]; SNP_A-1824897, rs10008568, allele A=A, B=G): nonAB
Lowest QTc change (genotype) (QT interval [2]; SNP_A-1906173, rs3775378, allele A=C, B=T): non-BB
Lowest QTc change (genotype) (QT interval [2]; SNP_A-1943446, rs17014602, allele A=C, B=G): non-AA
Lowest QTc change (genotype) (QT interval [2]; SNP_A-1977994, rs17014483, allele A=C, B=T): non-BB
Lowest QTc change (genotype) (QT interval [2]; SNP_A-2152738, rs1458553, allele A=A, B=G): nonAA
Lowest QTc change (genotype) (QT interval [2]; SNP_A-2190887, rs2609260, allele A=A, B=G): nonAB
Lowest QTc change (genotype) (QT interval [2]; SNP_A-4287986, rs2609265, allele A=C, B=T): nonAB
Lowest QTc change (genotype) (QT interval [2]; SNP_A-4290819, rs17014687, allele A=C, B=T): non-BB
Lowest QTc change (genotype) (QT interval [2]; SNP_A-4291320, rs2609264, allele A=C, B=T): nonAB
Lowest QTc change (genotype) (QT interval [2]; SNP_A-4296194, rs12507401, allele A=C, B=G): non-AA
